{
  "source": "patent US6261997A",
  "about": "“Slow release formulations of pesticides” (Yissum Research Development Company of the Hebrew …, priority 1996, dated 2001)",
  "key": {"green foxtail": {"test_system": "green foxtail", "experiment": "Laboratory soil column leaching bioassay (growth inhibition of sensitive test plants at soil depths)", "assay_type": "in vivo, green foxtail (setaria); wheat also sown", "conditions": "laboratory and field experiments", "description": "1. Under laboratory and field conditions, the following bioassay column technique was used to evaluate the leaching of the herbicide using sensitive plants to the given herbicide. Briefly, the experiments have used 100×100×200 mm tin columns filled with soil. The column surface is sprayed with either the commercial formulation of the herbicide or with the organoclay formulated herbicide. The herbicide is added at the same amounts as in the field applications, i.e., 200 g of the active ingredient per 1000 m^2. Then the columns are irrigated with 50 m^3 /[…]. The water is added throughout 5 hours. The columns are left for 24 hr and then sliced along their lengths into two parts (right and left). Two plants, setaria and wheat were sown in each part in two rows and irrigated with water. The height and the weight of the plants 7 days after emergence are used as an indicator of the presence of herbicide at different depths in the soil column.\nAlachlor was applied at 2.0 kg/ha followed by irrigation of 500 m^3 /ha. bars indicate standard errors.\nGreen foxtail growth was used to estimate the presence of matolachlor. Metolachlor formulations were commercial formulation (comm.); metolachlor on clay alone (Mont); metolachlor on clay pre-absorbed with BTMA 0.5 mole/kg clay. The clay based formulations contained 13% metolachlor. […] Bars indicate standard errors.\nGreen foxtail growth was used to estimate the presence of matolachlor. Metolachlor formulations were commercial formulation (comm.); metolachlor on clay pre-absorbed with PTMA 0.5 mole/kg clay. The clay based formulations contained 13% metolachlor. […] Bars indicate standard errors."}, "[1]": {"experiment": "Adsorption isotherms of herbicide on montmorillonite pre-adsorbed by organic cations", "assay_type": "physicochemical", "conditions": "for adsorption on montmorillonite pre adsorbed by organic cations: FIGS. 1A and 1B", "description": "A suitable concentrated solution of the organic cation is added dropwise to a 0.5 or 1% W/W of clay suspension (e.g. Montmorillonite; Sepiolite; Palygorskite; Pillared clays). After separation of the supernatant, the organoclay complex is dried and ground to less than 50 μm. The herbicide is dissolved in a suitable volatile organic solvent e.g. hexane, dichloro methane, acetone, and mixed with the solid organoclay in weight relations of 5-20 g of herbicide to 95-80 g organoclay. The organic solvent is evaporated under gentle reduced pressure and continuous mixing and the resulting herbicide-organoclay complex is ground to less than 50 μm. The pesticide formulation can be further improved by adding water or another solvent to the dried material; removing the loosely bound pesticide, and drying again.\nBTMS 0.8 mole/kg, BTEA 0.8 mole/kg, BTEA 0.5 mole/kg or HDTMA 0.5 mole/kg clay. Bars indicate standard errors."}},
  "data": [
    {"smiles": "CCCC[N+](CCCC)(CCCC)Cc1ccccc1.[Cl-]", "note": "[BTBA, benzyl tributyl ammonium chloride]", "values": [
      {"measurement": "inhibition of movement / leaching of the herbicide in the soil profile", "setting": "green foxtail", "result": "significant inhibition of herbicide leaching has been achieved"}
    ]},
    {"smiles": "CC[N+](CC)(CC)Cc1ccccc1.[Br-]", "note": "[BTEA, benzyltriethyl ammonium bromide]", "values": [
      {"measurement": "inhibition of movement / leaching of the herbicide in the soil profile", "setting": "green foxtail", "result": "significant inhibition of herbicide leaching has been achieved"}
    ]},
    {"smiles": "C[N+](C)(C)Cc1ccccc1.[Cl-]", "note": "[BTMA, benzyltrimethyl ammonium chloride]", "values": [
      {"measurement": "inhibition of movement / leaching of the herbicide in the soil profile", "setting": "green foxtail", "result": "significant inhibition of herbicide leaching has been achieved"}
    ]},
    {"smiles": "CCOCN(C(=O)CCl)c1c(C)cccc1CC", "note": "[acetochlor]", "values": [
      {"measurement": "inhibition of movement / leaching of the herbicide in the soil profile", "setting": "green foxtail", "result": "The same trend was also found"},
      {"measurement": "adsorption on montmorillonite pre adsorbed by organic cations", "setting": "[1]", "result": "enhanced adsorption"},
      {"measurement": "adsorption on montmorillonite preadsorbed by PTMA", "setting": "[1]; PTMA 0.5 mmol/g clay", "result": "Enhanced adsorption"}
    ]},
    {"smiles": "CCc1cccc(CC)c1N(COC)C(=O)CCl", "note": "[alachlor]", "values": [
      {"measurement": "adsorption on montmorillonite pre adsorbed by organic cations", "setting": "[1]", "result": "enhanced adsorption"}
    ]},
    {"smiles": "CNc1cnn(-c2cccc(C(F)(F)F)c2)c(=O)c1Cl", "note": "[norflurazon]", "values": [
      {"measurement": "inhibition of movement / leaching of the herbicide in the soil profile", "setting": "green foxtail", "result": "The same trend was also found"}
    ]}
  ]
}
